The values below are quoted from earlier work in US8871945B2, “Process for preparation of rufinamide” (priority 2010, dated 2014).

Data set [1] relates to sodium channels. The conditions noted are these: cultured cortical neurons; read-out: EC50 for limiting sustained repetitive firing of sodium-dependent action potentials.
Data set [2] deals with sodium channels. As to conditions: Rufinamide ≧1 μM; after a prolonged prepulse; cultured cortical neurons.

On to `NC(=O)c1cn(Cc2c(F)cccc2F)nn1` [Rufinamide, 1-(2,6-difluorobenzyl)-1H-1,2,3-triazole-4-carboxamide], for which the EC50 (commonly the concentration that produces a half-maximal response) in data set [1] is 3.8 µM. Also, the “sodium channel recovery from inactivation” value in data set [2] was “significantly slowed”.
